Results: ChEMBL document CHEMBL3885881, “DrugMatrix”

Species: Rattus norvegicus
Experiment: DrugMatrix - Regimen: Daily Repeat
Format: toxicity, organism-based, Sprague-Dawley
Design: regimen Daily Repeat, gender Male, age 6-8 weeks
Settings: in vivo, po, route oral GAVAGE, […]; for BASOPHIL / EOSINOPHIL / ERYTHROCYTE COUNT / HEMATOCRIT / HEMOGLOBIN / LEUKOCYTE COUNT / LYMPHOCYTE / MEAN CORPUSCULAR HEMOGLOBIN / MEAN CORPUSCULAR HEMOGLOBIN CONCENTRATION / MEAN CORPUSCULAR VOLUME / MONOCYTE / NEUTROPHIL / PLATELET COUNT / ABSOLUTE BASOPHIL / ABSOLUTE EOSINOPHIL / ABSOLUTE LYMPHOCYTE / ABSOLUTE MONOCYTE / ABSOLUTE SEGMENTED NEUTROPHIL / NUCLEATED RED BLOOD CELLS: tissue Blood; for ALANINE AMINOTRANSFERASE / ALBUMIN / ALKALINE PHOSPHATASE / ASPARTATE AMINOTRANSFERASE / BLOOD UREA NITROGEN / CHLORIDE / CHOLESTEROL / CREATINE PHOSPHOKINASE / CREATININE / GLUCOSE / PHOSPHORUS / POTASSIUM / SODIUM / TOTAL BILIRUBIN / TOTAL PROTEIN / CARBON DIOXIDE / LACTATE DEHYDROGENASE / LIPASE / URIC ACID: tissue Plasma
[1] = 0 mg/kg, 120 h, dose level Control, time 5 day
[2] = 0 mg/kg, dose level Control, time 28 day
[3] = 11 mg/kg, 72 h, dose level High, time 3 day
[4] = 11 mg/kg, 120 h, dose level High, time 5 day

O=[N+]([O-])c1cc([As](=O)(O)O)ccc1O [ROXARSONE]
BASOPHIL [1]: 0.32% | EOSINOPHIL [1]: 0.58% | ERYTHROCYTE COUNT [1]: 7.26 x10E6/uL | HEMATOCRIT [1]: 46.94% | HEMOGLOBIN [1]: 14.9 G/DL | LEUKOCYTE COUNT [1]: 8.69 x10E3/uL | LYMPHOCYTE [1]: 81.52% | MEAN CORPUSCULAR HEMOGLOBIN [1]: 20.58 pg | MEAN CORPUSCULAR HEMOGLOBIN CONCENTRATION [1]: 31.8 G/DL | MEAN CORPUSCULAR VOLUME [1]: 64.68 fL | MONOCYTE [1]: 2.16% | NEUTROPHIL [1]: 13.88% | PLATELET COUNT [1]: 1531.2 x10E3/uL | ALANINE AMINOTRANSFERASE [1]: 33.2 u/L | ALBUMIN [1]: 3.74 G/DL | ALKALINE PHOSPHATASE [1]: 318 u/L | ASPARTATE AMINOTRANSFERASE [1]: 78.6 u/L | BLOOD UREA NITROGEN [1]: 6 mg/dL | CHLORIDE [1]: 108.4 MEQ/L | CHOLESTEROL [1]: 63 mg/dL | CREATINE PHOSPHOKINASE [1]: 251 u/L | CREATININE [1]: 0.18 mg/dL | GLUCOSE [1]: 125.6 mg/dL | PHOSPHORUS [1]: 12.06 mg/dL | POTASSIUM [1]: 5.92 MEQ/L | SODIUM [1]: 146.8 MEQ/L | TOTAL BILIRUBIN [1]: 0.16 mg/dL | TOTAL PROTEIN [1]: 6.06 G/DL | BASOPHIL [2]: 0.42% | EOSINOPHIL [2]: 0.58% | ERYTHROCYTE COUNT [2]: 8.06 x10E6/uL | HEMATOCRIT [2]: 48.44% | HEMOGLOBIN [2]: 16.34 G/DL | LEUKOCYTE COUNT [2]: 13.04 x10E3/uL | LYMPHOCYTE [2]: 85.12% | MEAN CORPUSCULAR HEMOGLOBIN [2]: 20.26 pg | MEAN CORPUSCULAR HEMOGLOBIN CONCENTRATION [2]: 33.74 G/DL | MEAN CORPUSCULAR VOLUME [2]: 60.1 fL | MONOCYTE [2]: 1.44% | NEUTROPHIL [2]: 11.28% | PLATELET COUNT [2]: 1226 x10E3/uL | ALANINE AMINOTRANSFERASE [2]: 28.6 u/L | ALBUMIN [2]: 3.94 G/DL | ALKALINE PHOSPHATASE [2]: 254.6 u/L | ASPARTATE AMINOTRANSFERASE [2]: 67.8 u/L | BLOOD UREA NITROGEN [2]: 10.4 mg/dL | CHLORIDE [2]: 104.6 MEQ/L | CHOLESTEROL [2]: 57.6 mg/dL | CREATINE PHOSPHOKINASE [2]: 224.8 u/L | CREATININE [2]: 0.4 mg/dL | GLUCOSE [2]: 140.6 mg/dL | PHOSPHORUS [2]: 10.66 mg/dL | POTASSIUM [2]: 6.58 MEQ/L | SODIUM [2]: 148.6 MEQ/L | TOTAL BILIRUBIN [2]: 0.24 mg/dL | TOTAL PROTEIN [2]: 6.64 G/DL | ABSOLUTE BASOPHIL [3]: 0 CELLS/uL | ABSOLUTE EOSINOPHIL [3]: 38.67 CELLS/uL | ABSOLUTE LYMPHOCYTE [3]: 12107.67 CELLS/uL | ABSOLUTE MONOCYTE [3]: 206 CELLS/uL | ABSOLUTE SEGMENTED NEUTROPHIL [3]: 1247.67 CELLS/uL | BASOPHIL [3]: 0% | EOSINOPHIL [3]: 0.33% | ERYTHROCYTE COUNT [3]: 6.03 x10E6/uL | HEMATOCRIT [3]: 38.2% | HEMOGLOBIN [3]: 14.6 G/DL | LEUKOCYTE COUNT [3]: 13.6 x10E3/uL | LYMPHOCYTE [3]: 89% | MEAN CORPUSCULAR HEMOGLOBIN [3]: 24.2 pg | MEAN CORPUSCULAR HEMOGLOBIN CONCENTRATION [3]: 38.2 G/DL | MEAN CORPUSCULAR VOLUME [3]: 63.27 fL | MONOCYTE [3]: 1.67% | NEUTROPHIL [3]: 9% | NUCLEATED RED BLOOD CELLS [3]: 0 /100WBC | PLATELET COUNT [3]: 1141 x10E3/uL | ALANINE AMINOTRANSFERASE [3]: 88 u/L | ALBUMIN [3]: 3.93 G/DL | ALKALINE PHOSPHATASE [3]: 483.33 u/L | ASPARTATE AMINOTRANSFERASE [3]: 108 u/L | BLOOD UREA NITROGEN [3]: 10.67 mg/dL | CARBON DIOXIDE [3]: 29.33 mmol/L | CHLORIDE [3]: 100.67 MEQ/L | CHOLESTEROL [3]: 66.67 mg/dL | CREATINE PHOSPHOKINASE [3]: 464.67 u/L | CREATININE [3]: 0.15 mg/dL | GLUCOSE [3]: 142.67 mg/dL | LACTATE DEHYDROGENASE [3]: 448 u/L | LIPASE [3]: 11.67 u/L | PHOSPHORUS [3]: 11.03 mg/dL | POTASSIUM [3]: 6.34 MEQ/L | SODIUM [3]: 143.37 MEQ/L | TOTAL BILIRUBIN [3]: 0.2 mg/dL | TOTAL PROTEIN [3]: 5.6 G/DL | URIC ACID [3]: 1.6 mg/dL | ABSOLUTE BASOPHIL [4]: 0 CELLS/uL | ABSOLUTE EOSINOPHIL [4]: 0 CELLS/uL | ABSOLUTE LYMPHOCYTE [4]: 14104 CELLS/uL | ABSOLUTE MONOCYTE [4]: 363 CELLS/uL | ABSOLUTE SEGMENTED NEUTROPHIL [4]: 1099.67 CELLS/uL | NUCLEATED RED BLOOD CELLS [4]: 0 /100WBC | CARBON DIOXIDE [4]: 29.67 mmol/L | LACTATE DEHYDROGENASE [4]: 358.67 u/L | LIPASE [4]: 11.33 u/L | URIC ACID [4]: 1.37 mg/dL
